Results taken from PMC7281206, “Cysteine Cathepsins Inhibition Affects Their Expression and Human Renal Cancer Cell Phenotype” (Cancers, 2020).

Assays:
pancreatic cells = details: 48 and 72 h; ref [58]; cited from earlier work
Source text: In general, Cts inhibitors cannot be considered very potent cytostatic molecules. H ...

human recombinant CtsB = test: Fluorescent protease activity assay, recombinant CtsB; type: biochemical; details: 20 nM CtsB, 50 μM substrate, no inhibitor
Protocol: (§1) Ac-PLVE-FMK and Ac-VLPE-FMK inhibitory properties were evaluated against human recombinant CtsL and B. These recombinant enzymes were expressed in E. coli via plasmid transformation and further purification, using nickel-nitrilotriacetic acid (Ni-NTA) sepharose. Gel zymography assay was used to provide a preliminary evaluation of the ability of these recombinant proteins to degrade the gelatin substrate previously embedded in the gel (Supplementary Figure S1). Following Coomassie staining, the Cts were detectable as single bands. As expected, a translucent area was evident, due to the substrate digestion in the proximity of the proteins. Then, the recombinant proteins were tested for their ability to digest the Triticain-α substrate Ac-PLVQ via fluorescent protease activity assay, previously optimized by our group. This probe was conjugated with the fluorogenic chromophore 7-amino-4-methylcoumarin (Ac-PLVQ-AMC). After proteolytic cleavage, it emits a detectable fluorescent signal.
(§2) Total RNA extract from retinoblastoma […] cells was used to obtain cDNA. A pair of oligonucleotides ([…] and […]) was used for the amplification of DNA fragment containing CtsB, the product of which was ligated into pET15b (Merck Millipore, Billerica, MA, USA) using NdeI and XhoI. DNA fragment containing CtsL was amplified using a pair of oligonucleotides ([…] and […]) and ligated into pET28a (+) (Merck Millipore, Billerica, MA, USA) using NheI and HindIII. […]
(§3) The activity of recombinant CtsL and B was detected by the hydrolysis of the fluorogenic substrate Ac-Pro-Leu-Val-Gln- 7-amino-4-methylcoumarin (AMC) (Pepmic Suzhou Jiangsu, China). […] The substrate was added to a final concentration of 50 μM, and its hydrolysis was continuously measured for 12 min using a CLARIOstar® Plus plate reader (BMG Labtech Ortenberg Baden-Württemberg, Germany) at excitation and emission wavelengths of 353 and 442 nm, respectively.

human recombinant CtsL = test: Fluorescent protease activity assay, recombinant CtsL; type: biochemical; details: 20 nM CtsL, 50 μM substrate, no inhibitor
Protocol: as §1, §2, §3

769-P cells = test: Cell viability with paclitaxel (MTT), 769-P; type: cell-based, human; details: PXT alone, 100 nM, 72 h
Protocol: (§4) To evaluate the inhibitory properties of the peptides directly on the human renal cancer cells, we firstly assessed the impact of Ac-PLVE-FMK and Ac-VLPE-FMK on the cell viability of 769-P and A498 cells to determine the working concentrations for further experiments. […] Further experiments were performed using a concentration of 20 μM. To understand if the peptides could affect the activity of caspase proteases, we tested their effect on cell viability in combination with the chemotherapeutic paclitaxel (PXT) in both the cell lines. […] Next, we evaluated the effect of the peptides on renal cancer cell proteolytic activity against the fluorogenic probe Ac-PLVQ-AMC. In this case, 769-p and A498 cells were treated for 30 min with Ac-PLVE-FMK or Ac-VLPE-FMK and were then exposed for 10 min to the substrate Ac-PLVQ-AMC prior fluorescence microscopy analysis (Figure 3c,d).
(§5) The cell number was evaluated by counting viable cells using the MTT (3-(4,5-dimethylthiazol-2-yl)-2,5-diphenyltetrazolium bromide) colorimetric assay. A total of 2 × 10^4 cells/well were seeded on independent 96-well plates for each time point (0, 24, 48, and 72 h), with five replicates and treated with two inhibitors (2.5–250 μM). Then, 10 µL of the MTT reagent was added to each well, and cells were incubated for another 5 h. Next, the absorbance value was measured using a CLARIOstar® Plus plate reader (BMG Labtech, Ortenberg, Germany) at 490 nm. Triplicate wells were assayed, and S.D.s were determined.
Figure S3. Combined effect of PXT and the inhibitors on 769‐P proliferation: 769‐P cells were treated with 100 nM of PXT alone or in combination with 20 μM of Ac‐PLVE and Ac‐VLPE and cell proliferation was measured after 24, 48, and 72 h via MTT assay. Data represent the mean (± S.D.) of three independent experiments, each performed in triplicate.
Figure S4. Spheroids size and circularity: (a,b) size and circularity of 769‐P and (c,d) A498 cells upon treatment with Ac‐PLVE‐FMK and Ac‐VLPE‐FMK. Data represent the mean (± S.D.) of three independent experiments, each performed in triplicate. […]

A498 cells = test: Cell mortality with paclitaxel, A498; type: cell-based, human; details: PXT alone (data not shown)
Protocol: as §4
as §5, with “Then, 10 µL of the MTT reagent was added to each well, and cells were incubated for another 5 h.” left out

For CC(C)C[C@H](NC(=O)[C@H]1O[C@@H]1C(=O)O)C(=O)NCCCCN=C(N)N [E64], the Cytotoxic effect (pancreatic cells) is listed as “only a moderated cytotoxic effect, which reached a plateau phase after 48 and 72 h”.
For “Ac-Pro-Leu-Val-Gln- 7-amino-4-methylcoumarin (AMC) [Ac-PLVQ-AMC, fluorogenic Triticain-α substrate conjugated with 7-amino-4-methylcoumarin, reference compound]”, the Substrate cleavage (human recombinant CtsB) was “able to cleave the probe” and the Substrate cleavage (human recombinant CtsL) was “able to cleave the probe”.
For CC(=O)O[C@H]1C(=O)[C@@]2(C)[C@H]([C@H](OC(=O)c3ccccc3)[C@]3(O)C[C@H](OC(=O)[C@H](O)[C@@H](NC(=O)c4ccccc4)c4ccccc4)C(C)=C1C3(C)C)[C@]1(OC(C)=O)CO[C@@H]1C[C@@H]2O [PXT, paclitaxel, reference compound], the “Ability to kill cancer cells” value (769-P cells) was “the ability of the PXT to kill cancer cells was evident after 72 h of treatment at a concentration of 100 nM” and the Cell mortality (A498 cells) was “did not result in high mortality”.
